Measurements taken from publication PMC3781849 (Journal of Clinical Pharmacology, 2013).
Several values for one entry are separate records, joined by “and”; a condition that tells them apart may be missing. Equal entries are not always repeated. Entries after “also recorded” stand apart in the source; their conditions may differ. Where two headings read alike, the source gives them in different places.

How the values were obtained:
[1] = earlier studies; cited from earlier work
[2] = dasatinib + ketoconazole 200 mg twice daily; cited from earlier work
[3] = bosutinib + ketoconazole 400 mg once daily; cited from earlier work
[4] = nilotinib + ketoconazole 400 mg once daily; cited from earlier work
[5] = rats; preclinical studies; cited from earlier work
[6] = monkeys; preclinical studies; cited from earlier work
[7] = cited from earlier work
[8] = single 45-mg oral dose of 14C-labeled ponatinib, healthy volunteers; cited from earlier work
[9] = system: cells expressing all BCR-ABL mutants tested, including the T315I gatekeeper mutant; settings: preclinical; includes T315I; cited from earlier work
[10] = Safety and tolerability in the ponatinib ± ketoconazole crossover study
[11] = for Cmax: geometric mean (%CV, n)
[12] = ponatinib alone, 2 of 23 subjects
[13] = ponatinib with ketoconazole, 2 of 23 subjects
[14] = ponatinib + ketoconazole vs ponatinib alone
[15] = ponatinib + ketoconazole vs ponatinib alone, from estimated mean ratio

Cc1ccc(C(=O)O)cc1C#Cc1cnc2cccnn12 [AP24600]
Pharmacological activity [1]: pharmacologically inactive

Cc1nc(Nc2ncc(C(=O)Nc3c(C)cccc3Cl)s2)cc(N2CCN(CCO)CC2)n1 [dasatinib]
Increase in AUC [2]: 4.8 fold | Increase in Cmax [2]: 3.6 fold | Prolongation of t1/2 [2]: 5.4 h

Cc1ccc(C(=O)Nc2ccc(CN3CCNCC3)c(C(F)(F)F)c2)cc1C#Cc1cnc2cccnn12 [AP24567]
Potency, less potent than ponatinib [1]: 4 fold

COc1cc(Nc2c(C#N)cnc3cc(OCCCN4CCN(C)CC4)c(OC)cc23)c(Cl)cc1Cl [bosutinib]
Decrease in apparent clearance [3]: 9 fold | Increase in AUC0–t [3]: 7.6 fold | Increase in AUC0–∞ [3]: 8.6 fold | Increase in Cmax [3]: 5.2 fold | Prolongation of t1/2 [3]: 22.8 h

Cc1cn(-c2cc(NC(=O)c3ccc(C)c(Nc4nccc(-c5cccnc5)n4)c3)cc(C(F)(F)F)c2)cn1 [nilotinib]
Decrease in apparent clearance [4]: 2.5 fold | Increase in AUC0–t [4]: 1.8 fold | Increase in AUC0–∞ [4]: 3 fold | Increase in t1/2 [4]: 17.5 h

Cc1ccc(C(=O)Nc2ccc(CN3CCN(C)CC3)c(C(F)(F)F)c2)cc1C#Cc1cnc2cccnn12 [Ponatinib]
Absolute oral bioavailability [5]: 54% | Absolute oral bioavailability [6]: 20% | Steady-state trough plasma concentration ([7]; daily doses of 30 mg): > 40 nM | Accumulation of AUC from first dose to steady-state ([7]; once-daily ponatinib 45 mg): approximately 1.5 fold | Steady-state trough concentration, geometric mean ([7]; once-daily ponatinib 45 mg): 64 nM and 34.2 ng/mL | Dose proportionality of exposure (Cmax and AUC) ([7]; patients, initial dose and steady-state, doses 2 to 60 mg): approximately dose-proportional | Time of maximum plasma levels ([7]; patients, oral once-daily ponatinib, postdose): approximately 4 hours | Elimination half-life ([7]; ponatinib 45 mg, patients): approximately 22 hours | Relation to maximum tolerated dose ([7]; ponatinib 60 mg daily, phase 1 study): exceeded the maximum tolerated dose | Total radioactivity recovered in feces [8]: 87% | Total radioactivity recovered in urine [8]: 5% | Concentration sufficient to inhibit viability of cells expressing all BCR-ABL mutants tested and to suppress emergence of mutant clones [9]: 40 nM | Serious AEs ([10]; both regimens): no serious AEs | Subjects with at least one drug-related AE ([10]; both regimens): Nine | Vital sign, ECG, physical examination findings ([10]; both regimens): No treatment-related or clinically significant vital sign, ECG, or physical examination findings | Subjects with at least one treatment-emergent adverse event ([10]; of 23 subjects, both regimens, all mild): Eleven | Tolerability ([10]; ponatinib 15 mg, both alone and in combination with ketoconazole): generally well tolerated | Increased lipase (TEAE) [10, 12]: 8.7% | Somnolence (TEAE) [10, 12]: 8.7% | Headache (TEAE) [10, 13]: 8.7% | Somnolence (TEAE) [10, 13]: 8.7% | AUC(0-inf) ([11]; human, in vivo, 15 mg): 472 ng·h/mL | AUC(0-t) ([11]; human, in vivo, 15 mg): 414 ng·h/mL | half-life ([11]; human, in vivo, 15 mg): 35.3 h | Cmax ([11]; human, in vivo, 15 mg, Cmax, ponatinib 15 mg alone): 16.1 ng/mL | Tmax ([11]; human, in vivo, po, 15 mg): ~6 h | Cmax ([11]; ponatinib 15 mg + ketoconazole 400 mg daily): 23.6 (30.7, 22) ng/mL | Cmax ([11]; ponatinib 15 mg alone): 16.1 (36.0, 22) ng/mL | Effect of ketoconazole on t1/2 / terminal elimination [11, 14]: not essentially affected; also recorded: did not affect | Effect of ketoconazole on tmax [11, 14]: not affected; also recorded: did not affect | Increase in exposure, Cmax [11, 14]: 47% | Increase in exposure, AUC0–t [11, 15]: 70% | Increase in exposure, AUC0–∞ [11, 15]: 78% | Time at which mean plasma concentrations reached a maximum ([11]; single oral dose of 15 mg, independent of ketoconazole coadministration): 5 to 6 h
